One may read the Ki as a measure of affinity in units of concentration, obtained from inhibition or displacement. High values mean lower affinity, low ones higher affinity. What is called EC50 is the concentration giving half of the maximal effect.

SMILES strings stand for the structures. Read-outs that look alike come from different tables or passages of the source. Where a SMILES comes first, the peptide text is derived from it. Bridges are numbered along the chain shown (N, C = ends).

We go through two molecules from US9527887B2 (priority 2011, dated 2016).

Data set [1] has as its target T1, GC-C (Homo sapiens, UniProt P25092). The data set is described as follows: biochemical. Type of data set: binding.
The target in data set [2] is T1, GC-C. Kind of data set: cell-based. The following applies: 30 min at 37° C., IBMX.
The conditions of data set [3]: after oral administration at therapeutic dose levels; cited from earlier work.

T1 sequence (P25092 24-1073 limits assumed): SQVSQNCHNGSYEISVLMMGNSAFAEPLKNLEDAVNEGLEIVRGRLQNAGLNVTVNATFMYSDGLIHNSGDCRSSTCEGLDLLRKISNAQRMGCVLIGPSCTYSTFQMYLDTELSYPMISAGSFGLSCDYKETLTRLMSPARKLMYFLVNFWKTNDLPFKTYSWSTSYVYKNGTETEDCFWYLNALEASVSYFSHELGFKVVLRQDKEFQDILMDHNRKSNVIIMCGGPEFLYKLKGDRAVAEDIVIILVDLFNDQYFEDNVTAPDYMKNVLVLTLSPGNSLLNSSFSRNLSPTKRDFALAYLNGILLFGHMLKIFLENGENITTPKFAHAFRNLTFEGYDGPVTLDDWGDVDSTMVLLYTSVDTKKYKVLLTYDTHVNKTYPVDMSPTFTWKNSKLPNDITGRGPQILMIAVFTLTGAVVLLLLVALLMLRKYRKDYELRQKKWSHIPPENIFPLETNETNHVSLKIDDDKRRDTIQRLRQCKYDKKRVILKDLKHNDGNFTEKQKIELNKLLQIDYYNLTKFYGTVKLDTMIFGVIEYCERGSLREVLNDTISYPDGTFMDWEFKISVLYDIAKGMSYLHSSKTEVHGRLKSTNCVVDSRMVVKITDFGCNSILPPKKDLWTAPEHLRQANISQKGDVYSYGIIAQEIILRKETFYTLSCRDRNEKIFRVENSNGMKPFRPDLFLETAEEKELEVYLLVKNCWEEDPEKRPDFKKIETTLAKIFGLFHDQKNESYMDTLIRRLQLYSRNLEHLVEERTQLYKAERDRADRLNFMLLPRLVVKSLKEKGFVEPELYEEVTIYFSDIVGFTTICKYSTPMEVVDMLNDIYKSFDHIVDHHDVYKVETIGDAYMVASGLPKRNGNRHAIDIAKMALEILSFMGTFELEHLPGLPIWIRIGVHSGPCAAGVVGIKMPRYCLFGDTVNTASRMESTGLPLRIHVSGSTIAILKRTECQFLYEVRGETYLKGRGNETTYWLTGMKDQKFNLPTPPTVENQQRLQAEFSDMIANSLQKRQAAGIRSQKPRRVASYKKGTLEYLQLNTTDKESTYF

As for `CC(C)C[C@@H]1NC(=O)[C@H](CCC(=O)O)NC(=O)[C@@H]2CSSC[C@@H]3NC(=O)[C@H](C)NC(=O)[C@@H]4CCCN4C(=O)[C@H](CC(N)=O)NC(=O)[C@H](CSSC[C@H](NC(=O)[C@H](CC(=O)O)NC(=O)[C@H](CC(=O)O)NC(=O)[C@@H](N)CC(=O)O)C(=O)N2)NC(=O)[C@H](CSSC[C@@H](C(=O)N[C@@H](Cc2ccc(O)cc2)C(=O)O)NC(=O)CNC(=O)[C@H]([C@@H](C)O)NC3=O)NC1=O` [Peptide 17, DDDCCELCCNPACTGCY], the Ki on GC-C [1] (Binding affinity for GC-C Ki (nM) pH 5) turned out to be 4.3 nM; at GC-C [1] (Binding affinity for GC-C Ki (nM) pH 8) it was 27.3 nM. Also, the EC50 on GC-C [2] (pH 5 (DMEM+20 mM MES), read-out: cGMP response in T84 cells EC50 nM pH 5) amounted to 12.9 nM; on GC-C [2] (pH 8 (DMEM+50 mM sodium bicarbonate), read-out: cGMP response in T84 cells EC50 nM pH 8), 4980 nM.
Take `C[C@@H]1NC(=O)[C@@H]2CCCN2C(=O)[C@H](CC(N)=O)NC(=O)[C@@H]2CSSC[C@H](N)C(=O)N[C@H]3CSSC[C@H](NC1=O)C(=O)N[C@@H]([C@@H](C)O)C(=O)NCC(=O)N[C@H](C(=O)N[C@@H](Cc1ccc(O)cc1)C(=O)O)CSSC[C@H](NC(=O)[C@H](Cc1ccc(O)cc1)NC(=O)[C@H](CCC(=O)O)NC3=O)C(=O)N2` [linaclotide, Linaclotide] (H-CCEYCCNPACTGCY-OH; disulfide 1-6, 2-10, 5-13): the “levels of linaclotide seen systemically” value in data set [3] was “no detectable levels”.
